Results: patent US20040063662A1, “Selenophene anti-tumor agents” (priority 1996, published 2004)
Like-named read-outs stand apart in the source and are kept apart here.

What was measured:
[1] = test system: panel of sixty different human tumor cell lines; assay: NCI human tumor cell panel: whole panel (mean graph summary); conditions: for GI50 / CC50: Homo sapiens
[2] = test system: SF-268; assay: NCI human tumor cell panel: SF-268 (CNS Cancer); type: cell-based; conditions: SF-268, CNS Cancer; for GI50: read-out: Log10 GI50 (converted); for IC (TGI): read-out: Log10 TGI (converted)
[3] = test system: MALME-3M; assay: NCI human tumor cell panel: MALME-3M (Melanoma); type: cell-based; conditions: MALME-3M, Melanoma; for GI50: read-out: Log10 GI50 (converted); for IC (TGI): read-out: Log10 TGI (converted)
[4] = test system: HCT-15; assay: NCI human tumor cell panel: HCT-15 (Colon Cancer); type: cell-based; conditions: HCT-15, Colon Cancer; for GI50: read-out: Log10 GI50 (converted)
[5] = test system: UACC-257; assay: NCI human tumor cell panel: UACC-257 (Melanoma); type: cell-based; conditions: UACC-257, Melanoma; for GI50: read-out: Log10 GI50 (converted); for IC (TGI): read-out: Log10 TGI (converted)
[6] = test system: DU-145; assay: NCI human tumor cell panel: DU-145 (Prostate Cancer); type: cell-based; conditions: DU-145, Prostate Cancer; for GI50: read-out: Log10 GI50 (converted); for IC (TGI): read-out: Log10 TGI (converted)
[7] = test system: HS 578T; assay: NCI human tumor cell panel: HS 578T (Breast Cancer); type: cell-based; conditions: Breast Cancer; for GI50: read-out: Log10 GI50 (converted); for IC (TGI): read-out: Log10 TGI (converted)
[8] = test system: COLO 205; assay: NCI human tumor cell panel: COLO 205 (Colon Cancer); type: cell-based; conditions: COLO 205, Colon Cancer
[9] = test system: SN12C; assay: NCI human tumor cell panel: SN12C (Renal Cancer); type: cell-based; conditions: Renal Cancer; for GI50: read-out: Log10 GI50 (converted); for IC (TGI): read-out: Log10 TGI (converted)
[10] = test system: HL-60(TB); assay: NCI human tumor cell panel: HL-60(TB) (Leukemia); type: cell-based; conditions: Leukemia; for GI50: read-out: Log10 GI50 (converted)
[11] = test system: KM12; assay: NCI human tumor cell panel: KM12 (Colon Cancer); type: cell-based; conditions: KM12, Colon Cancer; for GI50: read-out: Log10 GI50 (converted); for IC (TGI): read-out: Log10 TGI (converted)
[12] = test system: OVCAR-5; assay: NCI human tumor cell panel: OVCAR-5 (Ovarian Cancer); type: cell-based; conditions: OVCAR-5, Ovarian Cancer; for GI50: read-out: Log10 GI50 (converted); for IC (TGI): read-out: Log10 TGI (converted)
[13] = test system: RXF-393; assay: NCI human tumor cell panel: RXF-393 (Renal Cancer); type: cell-based; conditions: RXF-393, Renal Cancer; for GI50: read-out: Log10 GI50 (converted); for IC (TGI): read-out: Log10 TGI (converted)
[14] = test system: SK-OV-3; assay: NCI human tumor cell panel: SK-OV-3 (Ovarian Cancer); type: cell-based; conditions: SK-OV-3, Ovarian Cancer; for GI50: read-out: Log10 GI50 (converted); for IC (TGI): read-out: Log10 TGI (converted)
[15] = test system: HOP-62; assay: NCI human tumor cell panel: HOP-62 (Non-Small Cell Lung Cancer); type: cell-based; conditions: HOP-62, Non-Small Cell Lung Cancer; for IC (TGI): read-out: Log10 TGI (converted)
[16] = test system: HOP-92; assay: NCI human tumor cell panel: HOP-92 (Non-Small Cell Lung Cancer); conditions: for GI50: HOP-92, read-out: Log10 GI50 (converted); for IC (TGI): HOP-92, read-out: Log10 TGI
[17] = test system: MCF7; assay: NCI human tumor cell panel: MCF7 (Breast Cancer); type: cell-based; conditions: MCF7, Breast Cancer; for GI50: read-out: Log10 GI50 (converted); for IC (TGI): read-out: Log10 TGI (converted)
[18] = test system: K-562; assay: NCI human tumor cell panel: K-562 (Leukemia); type: cell-based; conditions: K562, K-562, Leukemia; for GI50: read-out: Log10 GI50 (converted); for IC (TGI): read-out: Log10 TGI (converted)
[19] = test system: UACC-62; assay: NCI human tumor cell panel: UACC-62 (Melanoma); type: cell-based; conditions: UACC-62, Melanoma; for GI50: read-out: Log10 GI50 (converted); for IC (TGI): read-out: Log10 TGI (converted)
[20] = test system: T-47D; assay: NCI human tumor cell panel: T-47D (Breast Cancer); type: cell-based; conditions: T47D, Breast Cancer; for IC (TGI): read-out: Log10 TGI (converted)
[21] = test system: SNB-19; assay: NCI human tumor cell panel: SNB-19 (CNS Cancer); type: cell-based; conditions: SNB-19, CNS Cancer; for GI50: read-out: Log10 GI50 (converted); for IC (TGI): read-out: Log10 TGI (converted)
[22] = test system: HCC-2998; assay: NCI human tumor cell panel: HCC-2998 (Colon Cancer); type: cell-based; conditions: HCC-2998, Colon Cancer; for IC (TGI): read-out: Log10 TGI (converted)
[23] = test system: PC-3; assay: NCI human tumor cell panel: PC-3 (Prostate Cancer); type: cell-based; conditions: PC-3, Prostate Cancer; for GI50: read-out: Log10 GI50 (converted); for IC (TGI): read-out: Log10 TGI (converted)
[24] = test system: NCI-H226; assay: NCI human tumor cell panel: NCI-H226 (Non-Small Cell Lung Cancer); type: cell-based; conditions: NCI-H226, Non-Small Cell Lung Cancer; for GI50: read-out: Log10 GI50 (converted); for IC (TGI): read-out: Log10 TGI (converted)
[25] = test system: SR; assay: NCI human tumor cell panel: SR (Leukemia); type: cell-based; conditions: Leukemia; for GI50: read-out: Log10 GI50 (converted); for IC (TGI): read-out: Log10 TGI (converted)
[26] = test system: CAKI-1; assay: NCI human tumor cell panel: CAKI-1 (Renal Cancer); type: cell-based; conditions: CAKI-1, Renal Cancer
[27] = test system: MDA-MB-231/ATCC; assay: NCI human tumor cell panel: MDA-MB-231/ATCC (Breast Cancer); type: cell-based; conditions: Homo sapiens, MDA-MB-231, MDA-MB-231/ATCC, Breast Cancer; for GI50: read-out: Log10 GI50 (converted); for IC (TGI): read-out: Log10 TGI (converted)
[28] = test system: CCRF-CEM; assay: NCI human tumor cell panel: CCRF-CEM (Leukemia); type: cell-based; conditions: Leukemia; for GI50: read-out: Log10 GI50 (converted); for IC (TGI): read-out: Log10 TGI (converted)
[29] = test system: OVCAR-4; assay: NCI human tumor cell panel: OVCAR-4 (Ovarian Cancer); type: cell-based; conditions: OVCAR-4, Ovarian Cancer
[30] = read-out: Log10 TGI (converted)
[31] = read-out: Log10 GI50 (converted)

O=Cc1ccc(-c2ccc(-c3ccc(C=O)[se]3)s2)[se]1 [NSC 676630]
GI50 ([1]; read-out: Delta Log10 GI50, whole panel, line Delta (converted)): 26.3 µM | CC50 ([1]; read-out: Delta Log10 LC50, whole panel, line Delta (converted)): 85.1 µM | GI50 [2]: > 100 µM | IC (TGI) [2]: > 100 µM | GI50 [3]: > 100 µM | IC (TGI) [3]: > 100 µM | GI50 [4]: > 100 µM | IC (TGI) [4, 30]: > 100 µM | GI50 [5]: 0.275 µM | IC (TGI) [5]: 0.676 µM | GI50 [6]: > 100 µM | IC (TGI) [6]: > 100 µM | GI50 [7]: > 100 µM | IC (TGI) [7]: > 100 µM | GI50 [8, 31]: 93.3 µM | IC (TGI) [8, 30]: > 100 µM | GI50 [9]: > 100 µM | IC (TGI) [9]: > 100 µM | GI50 [10]: > 100 µM | GI50 [11]: > 100 µM | IC (TGI) [11]: > 100 µM | GI50 [12]: 0.132 µM | IC (TGI) [12]: 0.447 µM | GI50 [13]: > 100 µM | IC (TGI) [13]: > 100 µM | GI50 [14]: > 100 µM | IC (TGI) [14]: > 100 µM | IC (TGI) [15]: > 100 µM | GI50 [16]: > 100 µM | IC (TGI) [16]: > 100 µM | GI50 [17]: 0.676 µM | IC (TGI) [17]: > 100 µM | GI50 [18]: 3.39 µM | IC (TGI) [18]: > 100 µM | GI50 [19]: 0.263 µM | IC (TGI) [19]: > 100 µM | IC (TGI) [20]: > 100 µM | GI50 [21]: > 100 µM | IC (TGI) [21]: > 100 µM | IC (TGI) [22]: 85.1 µM | GI50 [23]: > 100 µM | IC (TGI) [23]: > 100 µM | GI50 [24]: 0.191 µM | IC (TGI) [24]: 0.49 µM | GI50 [25]: > 100 µM | IC (TGI) [25]: > 100 µM | GI50 [26, 31]: 0.741 µM | IC (TGI) [26, 30]: 15.1 µM | GI50 [27]: > 100 µM | IC (TGI) [27]: > 100 µM | GI50 [28]: > 100 µM | IC (TGI) [28]: > 100 µM

OCc1ccc(-c2ccc(-c3cccs3)[se]2)s1 [NSC 675344]
GI50 ([1]; read-out: Log10 GI50, cell line not given (converted)): 0.0871 µM | CC50 ([1]; read-out: Log10 LC50, cell line not given (converted)): > 100 µM | Log10 TGI ([1]; cell line not given): >−4.00 | GI50 [29, 31]: 0.0417 µM | IC (TGI) [29, 30]: > 100 µM | GI50 [2]: 23.4 µM | IC (TGI) [2]: > 100 µM | GI50 [3]: > 100 µM | IC (TGI) [3]: > 100 µM | GI50 [4]: 0.0257 µM | GI50 [5]: < 0.01 µM | IC (TGI) [5]: 0.0186 µM | GI50 [6]: 36.3 µM | IC (TGI) [6]: > 100 µM | GI50 [7]: 53.7 µM | IC (TGI) [7]: > 100 µM | GI50 [9]: > 100 µM | IC (TGI) [9]: > 100 µM | GI50 [10]: > 100 µM | IC (TGI) ([10]; read-out: Log10 TGI): > 100 µM | GI50 [11]: > 100 µM | IC (TGI) [11]: > 100 µM | GI50 [12]: < 0.01 µM | IC (TGI) [12]: 0.0871 µM | GI50 [13]: 15.8 µM | IC (TGI) [13]: 52.5 µM | GI50 [14]: 16.6 µM | IC (TGI) [14]: > 100 µM | GI50 [15, 31]: 34.7 µM | IC (TGI) [15]: > 100 µM | GI50 [16]: 27.5 µM | IC (TGI) [16]: 89.1 µM | GI50 [17]: 0.126 µM | IC (TGI) [17]: > 100 µM | GI50 [18]: 0.0437 µM | IC (TGI) [18]: > 100 µM | GI50 [19]: < 0.01 µM | IC (TGI) [19]: 0.0141 µM | GI50 [20, 31]: 0.617 µM | IC (TGI) [20]: > 100 µM | GI50 [21]: 29.5 µM | IC (TGI) [21]: > 100 µM | GI50 [22, 31]: 0.257 µM | IC (TGI) [22]: 1.62 µM | GI50 [23]: > 100 µM | IC (TGI) [23]: > 100 µM | GI50 [24]: < 0.01 µM | IC (TGI) [24]: < 0.01 µM | GI50 [25]: > 100 µM | IC (TGI) [25]: > 100 µM | GI50 [27]: 19.1 µM | IC (TGI) [27]: > 100 µM | GI50 [28]: > 100 µM | IC (TGI) [28]: > 100 µM
